These results are taken from patent publication US10273242B2, “Compound inhibiting activities of BTK and/or JAK3 kinases” (BEIJING HANMI PHARMACEUTICAL CO., LTD., priority 2013, dated 2019).

The target in test [1] is T1, JAK3 kinase (Homo sapiens, UniProt P52333).
T1 construct: purchased SignalChem J03-11G
The test is described as follows: JAK3 kinase activity inhibition assay (ADP-Glo). It counts as biochemical. As to conditions: ATP 10 μM. In general terms: In ADP-Glo the light output rises with the ADP produced.

The subject of test [2] is Lewis rats. The test is described as follows: Adjuvant-induced arthritis (AIA) model in rats. It counts as in vivo. As to conditions: 30 mg/kg and 100 mg/kg orally once a day for 7 days. How it is done: 100 mg of inactivated Mycobacterium tuberculosis (purchased from BD Difco, No.: 231141) accurately weighed and dissolved in 5 mL of incomplete Freund's adjuvant (IFA) (purchased from Sigma, No.: F5506), and then with 5 mL of physiological saline added, was homogeneously emulsified into 10 mg/mL of complete Freund's adjuvant (CFA). […] Rats were evaluated for the severity of arthritis using an established scoring system ranging from 0 to 4 as follows: 0=no evidence of erythema or swelling; 1=slight erythema or swelling of one of the toe joints; 2=erythema or swelling of more than one toe; 3=swelling of the ankle or wrist joint; 4=swelling of all toes including the ankle joint. All four paws of the rat were scored individually, and the highest score was 16.
The paw volumes of the rats were measured by the drainage method using a plethysmometer (Plethysmometer PV-200, Chengdu Taimeng Science and Technology Co., Ltd.) to determine the volumes below the ankle joints (in mL). The rats were measured for paw volumes every other day from day 10 after primary immunization, i.e. day 1 of the administration. […]

T1 sequence (P52333 781-1124 limits assumed): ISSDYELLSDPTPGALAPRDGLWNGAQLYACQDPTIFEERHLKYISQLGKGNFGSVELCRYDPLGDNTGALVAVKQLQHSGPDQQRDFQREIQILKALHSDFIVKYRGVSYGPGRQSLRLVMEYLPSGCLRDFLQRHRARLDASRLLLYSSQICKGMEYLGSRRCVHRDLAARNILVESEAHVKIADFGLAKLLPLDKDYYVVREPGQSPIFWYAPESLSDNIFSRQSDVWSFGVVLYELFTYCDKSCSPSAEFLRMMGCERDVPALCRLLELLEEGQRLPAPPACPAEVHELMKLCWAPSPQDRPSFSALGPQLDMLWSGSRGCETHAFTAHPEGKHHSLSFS

In test [1], `C=CC(=O)N1CC[C@@H](Nc2nc(Nc3cc(C)ns3)nc3ccsc23)C1` [Example 132, (R)-1-(3-((2-((3-methyl-isothiazol-5-yl)amino)thieno[3,2-d]pyrimidin-4-yl)amino)pyrrolidin-1-yl)prop-2-en-1-one] showed an IC50 not above 10 nM. Further, the “therapeutic effect on arthritis (arthritis severity scores)” value in test [2] is given as “good therapeutic effect on arthritis in the AIA model at the designed doses”.

As usually defined, the IC50 is the concentration needed to halve the response being measured.
